# Measured values reported in US20060122189A1, “Phenylpiperazine derivatives with a combination of partial dopamine-D2 receptor agonism and serotonin reuptake inhibition” (priority 2004, published 2006).
# Experiments:
# serotonin reuptake sites = target: T1, serotonin reuptake sites (Rattus norvegicus, UniProt P31652); test: In vitro affinity for serotonin reuptake sites ([3H]-paroxetine binding); details: read-out: 5-HT reuptake binding pKi (converted)
# T1 construct: from tissue
# Description: In Vitro Affinity for Serotonin Reuptake Sites
# Affinity of the compounds for serotonin reuptake sites was determined using the receptor binding assay described by E. Habert et al.,: “Characterisation of [^3H]-paroxetine binding to rat cortical membranes”, Eur. J. Pharmacol., 118, 107-114, 1985.
# [1] = target: T2, Human dopamine D2,L receptors (Homo sapiens, UniProt P14416); test: Inhibition of forskolin-induced [3H]-cAMP accumulation in CHO-K1 cells; format: cell-based; details: cloned human dopamine D2,L receptors; full agonist ε=1, full antagonist ε=0
# T2 construct: host or cells: CHO-K1
# Description: Inhibition of Forskolin-Induced [^3H]-cAMP Accumulation
# The in vitro functional activity at dopamine-D2 receptors, including the intrinsic activity (E) of the compounds of the invention was measured by their ability to inhibit forskolin-induced [^3H]-cAMP accumulation.
# Human dopamine D2,L receptors were cloned in fibroblast cell line CHO-K1′ cells and obtained from Dr. Grandy, Vollum Institute, Portland, Oreg., USA. CHO cells were grown in a Dulbecco's modified Eagle's medium (DMEM) culture medium, supplemented with 10% heat-inactivated fetal calf serum, 2 mM glutamine, 1 mM pyruvate, 5000 units/ml penicillin, 5000 μg/ml streptomycin and 200 μg/ml G-418 at 37° C. in 93% air/7% CO2. For incubation with test compounds, confluent cultures grown in 24 wells plates were used. Each condition or substance was routinely tested in quadruplicate. Cells were loaded with 1 μCi [^3H]-adenine in 0.5 ml medium/well. After 2 hours, cultures were washed with 0.5 ml PBS containing 1 mM of the phosphodiesterase inhibitor isobutylmethylxanthine (IBMX) and incubated for 20 min with 0.5 ml PBS containing 1 mM IBMX and forskolin with or without test compound. After aspiration the reaction was stopped with 1 ml trichloroacetic acid 5% (w/v). […] 0.8 ml Extract was passed over Dowex (50WX-4 200-400 mesh) and aluminumoxide columns, eluted with water and 0.1M imidazole (pH=7.5). Eluates were mixed with 7 ml Insta-gel and radioactivity was counted with a liquid scintillation counter. The conversion of [^3H]-ATP into [^3H]-cAMP was expressed as the ratio in percentage radioactivity in the cAMP fraction as compared to combined radioactivity in both cAMP and ATP fractions, and basal activity was subtracted to correct for spontaneous activity.
# Test compounds were obtained as 10 mM stock solutions in 100% DMSO, and diluted in PBS/IBMX to final concentrations. Typically, compounds were used in concentrations that ranged from 10^−10M to 10^−5M. From quadruplicate data counts, the mean was taken as an estimate for drug-induced, receptor-mediated effects at specified second messenger accumulation, expressed as percentage of control values (forskolin-stimulated cAMP accumulation, subtracted by basal activity). By using the non-linear curve-fitting program INPLOT or the Excel-add-in XL-Fit, mean values were plotted against drug concentration (in molar) and a sigmoid curve (four-parameter logistic curve) was constructed. The maximal forskolin-induced stimulated conversion is taken as maximum value and the maximal inhibition (usually at drug concentrations 10^−4 M or 10^−5 M) as minimum and these values were fixed during the fitting process. Thus, concentrations of the compound, causing 50% of the maximally obtained inhibition of forskolin-induced cAMP accumulation (EC50), are averaged over several experiments and presented as mean pEC50±SEM. Antagonist potency is assessed by co-incubating cells with a fixed agonist concentration and specified antagonist concentrations. Curve fitting procedures are identical to those used for estimating EC50 values. Thus IC50 values, i.e. the concentration that is able to achieve 50% of maximal antagonism that can be achieved by this compound. IC50 values are corrected using a Cheng-Prussoff equation, correcting it for agonist concentration and EC50 values that is obtained in the same experiment. Thus, Kb=IC50/(1+[agonist]/EC50, agonist). The corresponding pA2 value is −log (Kb). Concentration-response curve fitting allows estimation of pEC50 values and of maximal achievable effect (intrinsic activity or efficacy (ε). A full receptor agonist has ε=1, a full receptor antagonist has ε=0, and a partial receptor agonist has an intermediate intrinsic activity.
# T2 sequence (P14416 whole entry): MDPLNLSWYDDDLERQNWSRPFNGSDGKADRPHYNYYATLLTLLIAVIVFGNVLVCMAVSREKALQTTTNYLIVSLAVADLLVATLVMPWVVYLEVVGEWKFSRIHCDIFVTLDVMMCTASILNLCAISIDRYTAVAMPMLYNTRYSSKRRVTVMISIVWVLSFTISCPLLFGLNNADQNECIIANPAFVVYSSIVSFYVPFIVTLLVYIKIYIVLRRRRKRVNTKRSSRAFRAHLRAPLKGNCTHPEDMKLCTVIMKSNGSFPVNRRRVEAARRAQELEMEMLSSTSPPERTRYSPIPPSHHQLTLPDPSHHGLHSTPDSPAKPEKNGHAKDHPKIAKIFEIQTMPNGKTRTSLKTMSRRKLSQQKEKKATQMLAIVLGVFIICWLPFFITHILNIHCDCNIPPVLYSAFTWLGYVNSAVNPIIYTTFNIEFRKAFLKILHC
# T1 sequence (P31652 whole entry): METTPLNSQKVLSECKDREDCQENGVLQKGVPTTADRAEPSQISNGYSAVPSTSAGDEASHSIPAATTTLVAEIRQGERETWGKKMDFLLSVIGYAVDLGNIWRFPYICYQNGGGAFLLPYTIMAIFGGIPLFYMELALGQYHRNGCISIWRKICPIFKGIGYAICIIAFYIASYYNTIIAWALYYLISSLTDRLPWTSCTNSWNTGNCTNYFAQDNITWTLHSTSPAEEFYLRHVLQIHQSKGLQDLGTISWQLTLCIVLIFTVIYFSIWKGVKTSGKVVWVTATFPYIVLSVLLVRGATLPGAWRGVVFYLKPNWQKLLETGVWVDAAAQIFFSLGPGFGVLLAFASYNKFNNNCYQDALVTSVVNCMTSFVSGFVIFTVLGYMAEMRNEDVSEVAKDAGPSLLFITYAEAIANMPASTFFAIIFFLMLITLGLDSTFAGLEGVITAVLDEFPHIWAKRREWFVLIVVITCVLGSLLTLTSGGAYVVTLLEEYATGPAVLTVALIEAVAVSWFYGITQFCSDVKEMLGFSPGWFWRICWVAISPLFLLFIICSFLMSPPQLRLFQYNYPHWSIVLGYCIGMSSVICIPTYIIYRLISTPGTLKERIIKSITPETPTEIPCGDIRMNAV
Structure (SMILES),melting point [°C],Ki (serotonin reuptake sites) [nM],Dopamine-D2 cAMP accum ε (intrinsic activity) [1]
N#Cc1ccc2occ(CCCCN3CCN(c4cccc5[nH]c(=O)oc45)CC3)c2c1 [Compound 6],180 to 182,0.158,0.85
O=c1[nH]c2cccc(N3CCN(CCCc4csc5ccc(Cl)cc45)CC3)c2o1 [Compound 7],211 to 213,3.16,0.39
Cn1c(=O)oc2c(N3CCN(CCCCc4csc5ccc(C#N)cc45)CC3)cccc21 [Compound 94],184 to 186,3.16,0.70
O=c1[nH]c2cccc(N3CCN(CCCCn4ccc5ccc(F)cc54)CC3)c2o1 [Compound 16],143 to 145,0.794,0.73
Cn1c(=O)oc2c(N3CCN(CCC#Cc4ccc5ccc(F)cc5c4)CC3)cccc21 [Compound 135],–,2,0.45
O=c1[nH]c2cccc(N3CCN(CCCc4csc5ccc(F)cc45)CC3)c2o1 [Compound 8],193 to 195,1.26,0.10
